From paper PMC12630025, “Characterization and inhibitor sensitivity of ARAF, BRAF, and CRAF kinases [drawing 1]” (The Journal of Biological Chemistry, 2025)
Several values for one entry are separate records, joined by “and”; a condition that tells them apart may be missing. Equal entries are not always repeated. Where two headings read alike, the source gives them in different places.

Assays:
Type in all cases: biochemical
[1] = test system: CRAF^WT (MEK1:CRAF^WT:14-3-3 dimer complex); assay: TR-FRET kinase inhibition assay (phosphorylation of biotinylated MEK1), CRAF WT dimer complex; conditions: IC50 ratio ARAF/CRAF
[2] = biological target: T1, CRAF^WT (MEK1:CRAF^WT:14-3-3 dimer complex) (Homo sapiens, UniProt P04049); assay: as above; conditions: for CRAF^WT nH (Hill slope): four-parameter fit
T1 construct: His6 (N); made in house; host or cells: insect cells (baculovirus)

[3] = biological target: T2, CRAF^SSDD (MEK1^SASA:CRAF^SSDD:14-3-3 dimer complex) (Homo sapiens, UniProt P04049, Y340D/Y341D); assay: TR-FRET kinase inhibition assay (phosphorylation of biotinylated MEK1), CRAF SSDD dimer complex; conditions: for CRAF^SSDD IC50: 1 nM enzyme; for CRAF^SSDD nH (Hill slope): four-parameter fit, 200 μM ATP
T2 construct: His6 (N); StrepII (N); made in house; host or cells: insect cells (baculovirus)

[4] = biological target: T3, BRAF^WT (MEK1^SASA:BRAF^WT:14-3-3 dimer complex) (Homo sapiens, UniProt P15056); assay: biochemical; conditions: for effect of increasing ATP concentration on IC50 for BRAF^WT dimers: 10, 100, 1000 μM ATP
T3 construct: His6 (N); made in house; host or cells: SF9 insect cells (baculovirus)

[5] = biological target: T4, BRAF^V600E (MEK1^SASA:BRAF^V600E monomer complex) (Homo sapiens, UniProt P15056, V600E); assay: TR-FRET kinase inhibition assay (phosphorylation of biotinylated MEK1), BRAF V600E monomer complex
T4 construct: His6 (N); intein (C, cleaved yes); made in house; host or cells: insect cells (baculovirus)

[6] = biological target: T5, ARAF^SSDD (MEK1^SASA:ARAF^SSDD-14-3-3ε dimer complex) (Homo sapiens, UniProt P10398, G300S/Y301D/Y302D); assay: TR-FRET kinase inhibition assay (phosphorylation of biotinylated MEK1), ARAF dimer complex; conditions: for IC50: 10 nM enzyme, 250 nM MEK1, 200 μM ATP, 40 min preincubation, 30 min reaction; for ARAF^SSDD nH (Hill slope): four-parameter fit, 200 μM ATP; for cooperativity of inhibition of ARAF^SSDD: from Hill constants, less than −1.0 indicates positive cooperativity
T5 construct: ARAF^274-606, G300S, Y301/302D-14-3-3 ε with N-terminal His6 and StrepII tags; His6 (N); StrepII (N); made in house; host or cells: SF9 insect cells (baculovirus)
T5 sequence (P10398 274-606 G300S/Y301D/Y302D): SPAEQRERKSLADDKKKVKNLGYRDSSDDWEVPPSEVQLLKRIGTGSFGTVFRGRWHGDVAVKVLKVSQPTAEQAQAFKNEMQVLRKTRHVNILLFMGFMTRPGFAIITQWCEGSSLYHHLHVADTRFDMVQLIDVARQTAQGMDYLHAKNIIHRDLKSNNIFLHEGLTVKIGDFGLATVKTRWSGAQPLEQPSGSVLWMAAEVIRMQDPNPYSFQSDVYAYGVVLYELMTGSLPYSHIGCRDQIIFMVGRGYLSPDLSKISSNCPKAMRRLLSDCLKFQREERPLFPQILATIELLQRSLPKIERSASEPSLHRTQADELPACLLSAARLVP

[7] = test system: BRAF^WT (MEK1^SASA:BRAF^WT:14-3-3 dimer complex); assay: biochemical; conditions: IC50 ratio versus BRAF^V600E
[8] = 4 nM enzyme, 250 nM MEK1, 200 μM ATP, 40 min preincubation, 30 min reaction
[9] = 4 nM enzyme, 250 nM MEK1, 200 μM ATP, 40 min preincubation, 30 min reaction, read-out: CRAF^WT IC50
[10] = 250 nM MEK1, 200 μM ATP, 40 min preincubation, 30 min reaction
[11] = 1 nM enzyme, 250 nM MEK1, 200 μM ATP, 40 min preincubation, 30 min reaction, read-out: BRAF^WT IC50
[12] = IC50 of BRAF^WT at 10 μM ATP, 10 μM ATP
[13] = IC50 of BRAF^WT at 1000 μM ATP, 1000 μM ATP
[14] = read-out: IC50 of BRAF^WT at 100 μM ATP, 100 μM ATP
[15] = IC50 of BRAF^WT at 100 μM ATP, 100 μM ATP
[16] = 1 nM enzyme, 250 nM MEK1, 200 μM ATP, 40 min preincubation, three-parameter fit

T3 sequence (P15056 419-766, one chain of several): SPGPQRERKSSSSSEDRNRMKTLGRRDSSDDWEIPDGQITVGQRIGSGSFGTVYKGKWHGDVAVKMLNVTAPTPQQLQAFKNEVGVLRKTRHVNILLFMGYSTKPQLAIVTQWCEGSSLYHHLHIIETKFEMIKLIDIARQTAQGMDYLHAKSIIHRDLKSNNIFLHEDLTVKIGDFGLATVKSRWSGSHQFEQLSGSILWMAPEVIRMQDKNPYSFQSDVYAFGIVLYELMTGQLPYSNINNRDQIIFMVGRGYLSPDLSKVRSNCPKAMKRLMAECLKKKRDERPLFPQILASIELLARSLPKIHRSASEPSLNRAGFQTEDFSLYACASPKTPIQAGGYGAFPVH

Structure (SMILES) | CRAF^WT nH (Hill slope) ([2]; 200 μM ATP) | CRAF^SSDD nH (Hill slope) [3] | BRAF^WT nH (Hill slope) ([4]; four-parameter fit, 200 μM ATP) | IC50 [6] | ARAF^SSDD nH (Hill slope) [6] | other results
Cc1ccc(NC(=O)c2ccnc(C(F)(F)F)c2)cc1-c1cc(OCCO)nc(N2CCOCC2)c1 [Naporafenib] | −1.9 | −2.6 | −2.3 | 161 ± 19.2 nM | −3.2 | fold greater potency against CRAF dimers than ARAF dimers [1]: approximately 30 fold; CRAF^WT IC50 [2, 8]: single-digit nanomolar; IC50 [2, 9]: 5.46 ± 2.67 nM; CRAF^SSDD IC50 [3, 10]: single-digit nanomolar; IC50 ([3]; read-out: CRAF^SSDD IC50): 6.05 ± 2.41 nM; IC50 [4, 11]: 37.1 ± 23 nM; effect of increasing ATP concentration on IC50 for BRAF^WT dimers [4]: only modestly affected; IC50 [4, 12]: 29.1 ± 8.31 nM; IC50 [4, 13]: 54.9 ± 16.5 nM; IC50 [4, 14]: 38.2 ± 11.4 nM; IC50 [5]: 51.3 ± 1.16 nM; cooperativity of inhibition of ARAF^SSDD [6]: clear positive cooperativity
OCCn1cc(-c2ccc3c(c2)CC/C3=N\O)c(-c2ccncc2)n1 [GDC0879] | −1.0 | −0.7 |  |  | −0.4 | BRAF^WT nH (Hill slope) [4]: −0.9
CN(C)CCOc1ccc(-c2nc(-c3ccncc3)c(-c3ccc4c(c3)CC/C4=N\O)[nH]2)cc1 [SB590885] |  |  |  | 14.6 ± 3.9 nM | −0.6 | IC50 ([2]; CRAF^WT IC50, 4 nM enzyme, 250 nM MEK1, 200 μM ATP, 40 min preincubation, 30 min reaction): 11.6 ± 1.19 nM; IC50 ([3]; CRAF^SSDD IC50, 1 nM enzyme, 250 nM MEK1, 200 μM ATP, 40 min preincubation, 30 min reaction): 2.5 ± 1.63 nM; BRAF^WT nH (Hill slope) [4]: −1.0
CCCS(=O)(=O)Nc1ccc(F)c(C(=O)c2c[nH]c3ncc(-c4ccc(Cl)cc4)cc23)c1F [Vemurafenib] | −0.7 | −0.8 | −0.6 | 47.6 ± 9.12 nM | −0.9 | 
CC(C)(C)c1nc(-c2cccc(NS(=O)(=O)c3c(F)cccc3F)c2F)c(-c2ccnc(N)n2)s1 [Dabrafenib] | −0.9 | −1.0 | −1.4 | 9 nM and 8.58 nM | −1.1 | 
Cc1ccc(C(=O)Nc2ccc(CN3CCN(C)CC3)c(C(F)(F)F)c2)cc1C#Cc1cnc2cccnn12 [Ponatinib] | −0.9 | −1.6 | −2.0 |  | −1.2 | 
CNc1ncc2cc(-c3cc(NC(=O)NCCC(C)(C)C)c(F)cc3C)c(C)nc2n1 [LY3009120] | −1.4 | −2.9 | −2.2 |  | −3.6 | cooperativity of inhibition of ARAF^SSDD [6]: clear positive cooperativity
O=C(c1c(F)ccc(NS(=O)(=O)N2CC[C@@H](F)C2)c1F)c1c[nH]c2ncc(-c3cnc(C4CC4)nc3)cc12 [PLX8394] | −0.5 | −0.5 | −0.9 | 59.6 ± 54.8 nM | −0.8 | IC50 [2, 9]: > 999 nM; IC50 ([2]; 200 μM ATP, read-out: CRAF^WT dimers IC50): > 1000 nM; IC50 ([3]; read-out: CRAF^SSDD IC50): 279 ± 202 nM; IC50 [4, 11]: 54 ± 40.1 nM; effect of increasing ATP concentration on IC50 for BRAF^WT dimers [4]: shifted as expected; IC50 [4, 12]: 11.1 ± 7.84 nM; IC50 [4, 15]: 38.5 ± 34.2 nM; IC50 [4, 13]: 259 ± 316 nM; fold less active on BRAF^WT dimers than on BRAF^V600E [7]: about 3 fold; IC50 [5, 16]: 21.1 ± 1.78 nM; fold less active on ARAF^SSDD dimers than on BRAF^V600E ([6]; IC50 ratio versus BRAF^V600E): about 3 fold
CCN(C)S(=O)(=O)Nc1ccc(F)c(C(=O)c2c[nH]c3ncc(-c4cnc(C5CC5)nc4)cc23)c1F [PLX7904] | −0.4 | −0.4 | −0.6 | 899 ± 516 nM | −0.6 | IC50 [4, 11]: > 999 nM; IC50 ([4]; read-out: IC50 of BRAF^WT at 10 μM ATP, 10 μM ATP): 170 ± 121 nM; IC50 [4, 14]: > 1000 nM; IC50 ([4]; read-out: IC50 of BRAF^WT at 1000 μM ATP, 1000 μM ATP): > 10000 nM; IC50 [5, 16]: 320 ± 82.4 nM
Cc1ccc2c(Nc3cccc(Cl)c3F)nccc2c1NC(=O)c1csc2c(N)ncnc12 [Belvarafenib] | −1.6 | −3.0 | −3.0 | 69.9 ± 32 nM | −1.3 | CRAF^WT IC50 [2, 8]: single-digit nanomolar; IC50 [2, 9]: 5.05 ± 1.81 nM; CRAF^SSDD IC50 [3, 10]: single-digit nanomolar; IC50 ([3]; read-out: CRAF^SSDD IC50): 5.66 ± 1.12 nM; IC50 [4, 11]: 19.9 ± 0.98 nM; effect of increasing ATP concentration on IC50 for BRAF^WT dimers [4]: only modestly affected; IC50 [4, 12]: 14.2 ± 6.36 nM; IC50 [4, 15]: 21.5 ± 9.23 nM; IC50 [4, 13]: 29.3 ± 8.75 nM; IC50 [5]: 13.3 ± 0.87 nM
C[C@@H](NC(=O)c1ncnc(N)c1Cl)c1ncc(C(=O)Nc2cc(C(F)(F)F)c(Cl)cn2)s1 [Tovorafenib] |  |  |  | 225 ± 67.3 nM | −1.4 | 
CCCS(=O)(=O)Nc1ccc(F)c(C(=O)c2c[nH]c3ncc(Cl)cc23)c1F [PLX4720] |  |  |  | 704 ± 264 nM | −0.5 | 
Cc1ccc(NC(=O)c2cccc(C(C)(C)C#N)c2)cc1Nc1ccc2ncn(C)c(=O)c2c1 [AZ628] | −1.1 | −2.6 | −3.1 | 44.1 ± 21.2 nM | −1.8 | cooperativity of inhibition of ARAF^SSDD [6]: clear positive cooperativity
CNC(=O)c1cc(Oc2ccc(NC(=O)Nc3ccc(Cl)c(C(F)(F)F)c3)cc2)ccn1 [Sorafenib] | −1.2 | −1.3 |  |  | −0.9 | 
